In patent US10823738B2, “Methods for breast cancer treatment” (George Mason University, priority 2015, dated 2020):

How the values were obtained:
[1] = system: breast cancer; experiment: Bayesian analysis (MCMC simulation on I-SPY 2 data) of the predicted probability of Phase III success; assay type: in vivo, human
Description: Adaptive design trials are constructed on the basis of assigning patients to certain signature groups such as signature biomarker groups, the goal being to determine predictive probabilities of success in Phase III trials for various targeted therapeutics. In essence, the design trials provide data that facilitates the determination of which patient biomarker signatures respond to various regimens. A regimen would “graduate” from trial if probability of statistical significance in Phase III reaches 85% for any signature, provided that a minimum of 60 patients have been assigned to the regimen. Neratinib was one of 7 agents tested in the experimental arms of the ISPY-2 TRIAL to date.
Bayesian analysis was completed using the MCMC simulation based on I-SPY 2 data with the following model: pCR˜HR+HER2+biomarker+treatment+treatment*HR+treatment*HER2+treatment*biomarker. No multiple comparison adjustments were applied. The Bayesian analytical engine developed by Don Berry (Yee et al J Clin Oncol. 2012 Dec. 20; 30(36):4584-6), is a mathematical approach that evaluates the clinical performance of a drug (in this case, neratinib) in both the treatment arm (in this case tumor shrinkage estimates by size changes observed by MRI), coupled with complete pathological response (pCR) as measured as the final response determinant, and the response of the predicate therapy in the control arm. This evaluation determined success of a given therapy for a Phase III trial, and in this case, it was determined that phosphorylation of EGFR at Y1173 was not only statistically significant at predicting or assessing response to neratinib in all patients regardless of hormone receptor levels and HER2 levels (HER2+, HER2− and HR+ and HR−), but when patients with high levels of phosphorylated EGFR (Y1173) were added to the HR−/HER2+ subgroup, the prevalence of ‘biomarker-positive’ patients increased by 50%, while increasing the predicted probability of Phase III success to 90%. […]

[2] = system: HER2− breast cancer; experiment: I-SPY 2 TRIAL: pCR response of breast cancer patients treated with veliparib; assay type: in vivo, human
Description: Currently, treatment of Stage II/III breast cancer involves neoadjuvant treatment (pre-surgical) with drug regimens that may include therapies targeting specific molecular defects. Disclosed herein are novel methods for treatment of breast cancer comprising identifying biomarkers that predict response to therapeutic agents used in the pre-surgical stage of treatment of cancer. Subjects providing samples (pre-treatment biopsies) for studies described herein were characterized based on measurement of estrogen/hormone receptor (HR) and HER2 (c-erbB2), and were described by HER2−/HR−. HER2+/HR+. HER2+/HR−, HER2−/HR+ phenotypes. Response to treatment was determined by the amount of tumor shrinkage and a lack of appreciable tumor evident at surgery. […] This microarray allows for quantitative measurement of the amount of proteins and/or phosphorylated proteins in the tumor or cancerous cells from pretreatment sample, for example from biopsy specimens of women with Stage II/III breast cancer. […]
This example tested the hypothesis that the response to the PARP inhibitor, veliparib, was predicted by specific biomarkers. […] Various proteins were evaluated as biomarkers of veliparib response using reverse phase protein microarray (RPMA) data from pre-treatment laser capture microdissection (LCM) purified tumor epithelium. […]

SMILES | Phase III success (predicted probability) ([1]; EGFR Y1173 used as a single marker, all patients) | Phase III success (predicted probability) ([1]; HER2+/HR− status as measured by immunohistochemical methods) | predicted probability of Phase III success ([1]; patients with high levels of phosphorylated EGFR (Y1173) added to the HR−/HER2+ subgroup) | clinical response ([2]; HER2−/HR− subtype) | complete pathological response (pCR) ([2]; women with both HR+ and HR− tumors)
CCOc1cc2ncc(C#N)c(Nc3ccc(OCc4ccccn4)c(Cl)c3)c2cc1NC(=O)/C=C/CN(C)C [neratinib] | 93% | 87% | 90% | – | –
C[C@]1(c2nc3c(C(N)=O)cccc3[nH]2)CCCN1 [veliparib] | – | – | – | statistically significant clinical response | pCR was observed
